Source: ChEMBL document CHEMBL1671717, “In vitro potentiation of carbapenems with ME1071, a novel metallo-beta-lactamase inhibitor, against metallo-beta-lactamase- producing Pseudomonas aeruginosa clinical isolates” (Antimicrob Agents Chemother, 2010)

Assays:
[1] = biological target: Beta-lactamase (Pseudomonas aeruginosa, UniProt Q79MP6)
Description: Inhibition of Pseudomonas aeruginosa beta-lactamase IMP-1 assessed as hydrolysis of nitrocefin by UV spectrophotometric analysis

[2] = biological target: Beta-lactamase VIM-2 (Pseudomonas aeruginosa, UniProt Q9K2N0)
Description: Inhibition of Pseudomonas aeruginosa beta-lactamase VIM-2 assessed as hydrolysis of nitrocefin by UV spectrophotometric analysis

Beta-lactamase, sequence (Q79MP6 whole entry): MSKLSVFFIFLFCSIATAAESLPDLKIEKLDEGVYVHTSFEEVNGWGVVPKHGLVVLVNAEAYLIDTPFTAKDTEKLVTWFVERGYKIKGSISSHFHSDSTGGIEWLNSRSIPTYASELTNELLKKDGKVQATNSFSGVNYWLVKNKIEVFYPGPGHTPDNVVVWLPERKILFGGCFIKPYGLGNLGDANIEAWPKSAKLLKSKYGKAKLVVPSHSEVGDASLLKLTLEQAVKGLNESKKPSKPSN

| SMILES | Ki [1] [nM] | Ki [2] [nM] |
| --- | --- | --- |
| O=C(O)CCS [MERCAPTOPROPIONIC ACID] | 180 | – |
| O=C(O)CS [THIOGLYCOLIC ACID] | 180 | – |
| CC/C(C(=O)O)=C(\CC)C(=O)O | – | 120000 |
| C[C@@H](O)[C@H]1C(=O)N2C(C(=O)O)=C(Sc3cc4ccccc4s3)[C@H](C)[C@H]12 | 180 | – |
| COC1OC(C)=Cc2oc3cc(O)c(O)c(C(=O)O)c3c(=O)c21 (stereo not given) | 180 | – |
